Test results published in EPA's ToxValDB 9.5 (doi:10.2903/j.efsa.2010.1565).
≈ marks a conversion by molar mass, not a printed value.

Legend:
Daphnia magna = conditions: chronic/long-term; duration: 21 days; reproduction
Typhlodromus pyri = conditions: not reported; other
Rattus norvegicus = conditions: oral
Colinus virginianus = conditions: acute; oral; mortality
Canidae = conditions: chronic; duration: 1 years; oral; Dog Other; organ weight

Q: Which results are given for `CCN(CC)C(=O)C(C)Oc1cccc2ccccc12` (configuration not stated) [Napropamide]?
A: NOEL (Anas platyrhynchos; reproductive, reproduction): 309 mg/kg-day; LC50 (Anas platyrhynchos; short-term, oral, feed, mortality): > 1570 mg/kg-day; NOEC (Daphnia magna): 4.3 mg/L; LC50 (Oncorhynchus mykiss; acute, duration: 96 hours, mortality): 6.6 µg/mL (≈ 24.3 µM); NOEC (Oncorhynchus mykiss; chronic/long-term, duration: 28 days, growth): 1.1 mg/L; LEL (Typhlodromus pyri): 4500 g/ha; LC50 (Tagia sp.; acute, duration: 14 days, mortality): 564 mg/kg; NOEC (Tagia sp.; chronic/long-term, reproduction): 60 mg/kg; LD50 (Rattus norvegicus; acute, mortality): 4680 mg/kg; NOAEL (Rattus norvegicus; chronic, duration: 2 years, body weight): 30 mg/kg-day; LD50 (Colinus virginianus): > 2250 mg/kg; NOAEL (Canidae): 50 mg/kg-day
